Data from PubChem BioAssay (NCI).
“And” between values parts separate entries of the source, which are not always exact repeats. Equal entries are not always repeated.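 Five compound concentrations were applied to cells in 96-well plates for 48 hours; endpoints were derived by simple linear interpolation of the resulting dose-response curve. GI50 marks 50% less growth. The concentration for full growth arrest is given as TGI.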

What was measured:
Assay in all cases: NCI anticancer screen, dose series, 48 h
MOLT-4 leukemia = tested on: MOLT-4 leukemia
UACC-62 melanoma = tested on: UACC-62 melanoma
ACHN renal = tested on: ACHN renal
HCT-116 colon = tested on: HCT-116 colon
UACC-257 melanoma = tested on: UACC-257 melanoma
OVCAR-5 ovarian = tested on: OVCAR-5 ovarian
NCI/ADR-RES ovarian = tested on: NCI/ADR-RES ovarian
SNB-19 CNS = tested on: SNB-19 CNS
NCI-H23 lung = tested on: NCI-H23 lung
SK-MEL-5 melanoma = tested on: SK-MEL-5 melanoma

| Compound | GI50 (MOLT-4 leukemia) | TGI (MOLT-4 leukemia) | GI50 (UACC-62 melanoma) | TGI (UACC-62 melanoma) | GI50 (ACHN renal) | TGI (ACHN renal) | GI50 (HCT-116 colon) | TGI (HCT-116 colon) | GI50 (UACC-257 melanoma) | TGI (UACC-257 melanoma) | GI50 (OVCAR-5 ovarian) | TGI (OVCAR-5 ovarian) | GI50 (NCI/ADR-RES ovarian) | TGI (NCI/ADR-RES ovarian) | GI50 (SNB-19 CNS) | TGI (SNB-19 CNS) | GI50 (NCI-H23 lung) | TGI (NCI-H23 lung) | GI50 (SK-MEL-5 melanoma) | TGI (SK-MEL-5 melanoma) |
| --- | --- | --- | --- | --- | --- | --- | --- | --- | --- | --- | --- | --- | --- | --- | --- | --- | --- | --- | --- | --- |
| CCOC(=O)/C(=C/c1c(-c2ccccc2)[nH]c2ccccc12)C(=O)c1ccc(Cl)cc1 | 2.57 µM | 8.21 µM | 3.27 µM | 37.1 µM | 3.62 µM | > 100 µM | 2.76 µM | > 100 µM | 6.49 µM | > 100 µM | > 100 µM | > 100 µM | 2.69 µM | > 100 µM | 7.96 µM | > 100 µM | 3.47 µM | > 100 µM | 1.78 µM | 4.1 µM |
| Cn1cc(-c2ccc3c(c2)ncn3-c2ccc(CC(=O)Nc3cc(C(C)(C)C)on3)cc2)cn1 | 1.58 µM | > 100 µM | 1.53 µM | 11.6 µM | 0.405 µM | 10.9 µM | 1.89 µM | 7.43 µM | 3.18 µM | 53.7 µM | 1.35 µM | > 27.2 µM | 2.23 µM | > 35.1 µM | 3.5 µM | > 100 µM | 1.88 µM | 17.2 µM | 2.5 µM | 15.5 µM |
| O=[N+]([O-])c1ccc([I+]c2ccccc2)cc1 | 3.17 µM | > 26.2 µM and 75.3 µM | 1.43 µM | 8.17 µM and 3.62 µM | 5.15 µM | > 31.6 µM and 18.5 µM | 1.83 µM | 17.5 µM and 3.8 µM | 1.6 µM | 13.9 µM and 4.42 µM | 1.78 µM | 17 µM and 3.34 µM | 2.25 µM | > 29.1 µM and 6.92 µM | 1.63 µM | 9.99 µM and 3.03 µM | 1.23 µM | 5.98 µM and 2.74 µM | 1.54 µM | 21.2 µM and 2.93 µM |
| CCN1C(=O)N(CC)C2C1NN=c1s/c(=C\c3ccc([N+](=O)[O-])cc3)c(=O)n12 (stereo not given) | 0.577 µM | > 100 µM | 0.5 µM | > 100 µM | 0.587 µM | > 100 µM | 0.427 µM | > 100 µM | 1.17 µM | 70 µM | 1.22 µM | > 91.1 µM | 0.396 µM | > 45.2 µM | 0.683 µM | > 84.3 µM | 1.11 µM | > 100 µM | 0.343 µM | 12.1 µM |
| CCN(CC)c1ccc(/C=C/C2=[N+](C)c3ccccc3C2(C)C)cc1 | 0.557 µM | > 100 µM | 0.435 µM | 14.9 µM | 1.48 µM | 14.6 µM | 0.181 µM | 22.1 µM | 0.375 µM | 14.6 µM | 1.01 µM | 23.7 µM | 13.9 µM | > 100 µM | 0.326 µM | 15.4 µM | 0.181 µM | 25.8 µM | 0.28 µM | 1.31 µM |
| NCCCNCCCNc1nc2ccccc2c2[nH]c3ccccc3c12 | 0.0252 µM | 3.62 µM | 0.327 µM | 1.73 µM | 0.112 µM | 2.82 µM | 0.091 µM | 1.87 µM | 2.31 µM | 6.2 µM | 0.215 µM | 1.61 µM | 0.645 µM and 0.621 µM | > 100 µM | 0.0785 µM | 1.42 µM | 0.0936 µM | 1.06 µM | 0.362 µM | 1.81 µM |
| S=c1nc(/C=C/c2ccc(Cl)c(Cl)c2)[nH][nH]1 | – | > 100 µM | – | > 100 µM | – | > 100 µM | – | > 100 µM | – | > 100 µM | – | > 100 µM | > 100 µM | > 100 µM | – | > 100 µM | – | > 100 µM | – | > 100 µM |
| C=C1CCC2C3(C)COC(c4cccc(Cl)c4)OC3CCC2(C)C1/C=C/C1=CCOC1=O (stereo not given) | 6.55 µM | > 100 µM | 6.35 µM | > 100 µM | > 100 µM | > 100 µM | 3.08 µM | > 100 µM | 3.43 µM | > 100 µM | > 100 µM | > 100 µM | 6.06 µM | > 100 µM | > 100 µM | > 100 µM | 5.17 µM | > 100 µM | 3.39 µM | > 100 µM |
| C[C@@H](Oc1cc(-n2cnc3ccc(OCC4CCN(C)CC4)cc32)sc1C(N)=O)c1ccccc1C(F)(F)F | 0.0916 µM | 2.98 µM | 0.0964 µM | 3.02 µM | 0.801 µM | 4.52 µM | 0.0997 µM | 3.18 µM | 0.179 µM | 4.51 µM | 0.114 µM | 3.81 µM | 0.477 µM | 3.87 µM | 0.163 µM | 4.56 µM | 0.118 µM | 3.37 µM | 0.217 µM | 2.95 µM |
| COc1cc2c(c(Br)c1N)-c1cc(Br)c(N)cc1C2=O | > 100 µM | > 100 µM | > 100 µM | > 100 µM | > 100 µM | > 100 µM | 3.49 µM | > 100 µM | > 100 µM | > 100 µM | 0.0894 µM | > 100 µM | 5.31 µM | > 100 µM | > 100 µM | > 100 µM | 4.3 µM | > 100 µM | 5.39 µM | > 100 µM |
| O=C(/C=C/c1cccnc1)/C=C/c1cccnc1 | 0.31 µM | – | 1.91 µM | 5.36 µM | 2.19 µM | 5.48 µM | 0.164 µM | 0.321 µM | 7.63 µM | 20.3 µM | 2.17 µM | 5.03 µM | 4.08 µM | 30.6 µM | 3.64 µM | 11.6 µM | 2.33 µM | 6.7 µM | 2.06 µM | 4.7 µM |
